Reference: PubChem BioAssay AID1745844 (Carcinogenic Potency Database (CPDB), 2022)
Values joined by “and” are separate entries in the source; they are usually repeats but may differ in a detail not shown here. Identical values can stand only once. Active and inactive are the calls of the source. The rule behind the calls is not given here.

Test system: rodent lifetime carcinogenesis bioassay, tumor incidence TD50
Test: chronic cancer bioassays in animals – CPDB, compiled studies (AID 1745844)

## O=C1OC(c2ccc(O)cc2)(c2ccc(O)cc2)c2ccccc21
mouse, strain B6C3F1, females, in feed, site: all sites + ovary, lesion: histiocytic sarcoma + lymphoma malignant, thymic origin + malignant lymphoma + sex-cord stromal tumor, benign, bilateral + sex-c, dosed 105 weeks, study length 105 weeks
  TD50: 508 mg/kg/day
mouse, strain B6C3F1, females, in feed, site: all sites, lesion: histiocytic sarcoma, dosed 105 weeks, study length 105 weeks
  TD50: 4080 mg/kg/day
mouse, strain B6C3F1, females, in feed, site: all sites, lesion: lymphoma malignant, thymic origin, dosed 105 weeks, study length 105 weeks
  TD50: 1610 mg/kg/day
mouse, strain B6C3F1, females, in feed, site: all sites, lesion: malignant lymphoma, dosed 105 weeks, study length 105 weeks
  TD50: 748 mg/kg/day
mouse, strain B6C3F1, females, in feed, site: any site (literature study), lesion: several types, types named in the paper, dosed 105 weeks, study length 105 weeks
  TD50: 1740 mg/kg/day
mouse, strain B6C3F1, females, in feed, site: lung, lesion: alveolar/bronchiolar adenoma + alveolar/bronchiolar carcinoma, dosed 105 weeks, study length 105 weeks
  TD50: 9190 mg/kg/day
mouse, strain B6C3F1, females, in feed, site: ovary, lesion: sex-cord stromal tumor, benign, bilateral + sex-cord stromal tumor, benign, dosed 105 weeks, study length 105 weeks
  TD50: 1900 mg/kg/day
mouse, strain B6C3F1, males, in feed, site: all sites, lesion: histiocytic sarcoma + lymphoma malignant, thymic origin, dosed 104 weeks, study length 104 weeks
  TD50: 1150 mg/kg/day
mouse, strain B6C3F1, males, in feed, site: all sites, lesion: histiocytic sarcoma, dosed 104 weeks, study length 104 weeks
  TD50: 2680 mg/kg/day
mouse, strain B6C3F1, males, in feed, site: all sites, lesion: lymphoma malignant, thymic origin, dosed 104 weeks, study length 104 weeks
  TD50: 2740 mg/kg/day
mouse, strain B6C3F1, males, in feed, site: any site (literature study), lesion: several types, types named in the paper, dosed 104 weeks, study length 104 weeks
  TD50: 32200 mg/kg/day
mouse, strain B6C3F1, males, in feed, site: lung, lesion: alveolar/bronchiolar adenoma + alveolar/bronchiolar carcinoma, dosed 104 weeks, study length 104 weeks
  TD50: 8060 mg/kg/day
mouse, strain B6C3F1, males, in feed, site: spleen, lesion: hemangiosarcoma, dosed 104 weeks, study length 104 weeks
  TD50: 1640 mg/kg/day
mouse, strain BALB/c, males, in feed, site: liver, lesion: hepatoma, dosed 60 weeks, study length 104 weeks
  TD50: 20800 mg/kg/day (inactive)
mouse, strain BALB/c, males, in feed, site: lung, lesion: one or several types, types not named, dosed 60 weeks, study length 104 weeks
  carcinogen call: negative (inactive)
mouse, strain C57BL/6J, males, by gavage, site: liver, lesion: hepatoma, dosed 69 weeks, study length 104 weeks
  carcinogen call: negative (inactive)
mouse, strain C57BL/6J, males, by gavage, site: lung, lesion: one or several types, types not named, dosed 69 weeks, study length 104 weeks
  carcinogen call: negative (inactive)
rat, strain Fischer 344, females, in feed, site: adrenal medulla, lesion: pheochromocytoma benign, bilateral + pheochromocytoma, benign, dosed 105 weeks, study length 105 weeks
  TD50: 4160 mg/kg/day
rat, strain Fischer 344, females, in feed, site: adrenal medulla, lesion: pheochromocytoma benign, bilateral + pheochromocytoma, malignant + pheochromocytoma, benign, dosed 105 weeks, study length 105 weeks
  TD50: 3530 mg/kg/day
rat, strain Fischer 344, males, in feed, site: adrenal medulla + kidney, lesion: pheochromocytoma benign, bilateral + pheochromocytoma, benign + tubule adenoma + tubule carcinoma, dosed 104 weeks, study length 104 weeks
  TD50: 250 mg/kg/day
rat, strain Fischer 344, males, in feed, site: adrenal medulla, lesion: pheochromocytoma benign, bilateral + pheochromocytoma, benign, dosed 104 weeks, study length 104 weeks
  TD50: 517 mg/kg/day
rat, strain Fischer 344, males, in feed, site: adrenal medulla, lesion: pheochromocytoma benign, bilateral + pheochromocytoma, malignant + pheochromocytoma malignant, bilateral + pheochromocytoma, b, dosed 104 weeks, study length 104 weeks
  TD50: 533 mg/kg/day
rat, strain Fischer 344, males, in feed, site: any site (literature study), lesion: several types, types named in the paper, dosed 104 weeks, study length 104 weeks
  TD50: 3540 mg/kg/day
rat, strain Fischer 344, males, in feed, site: kidney, lesion: tubule adenoma + tubule carcinoma, dosed 104 weeks, study length 104 weeks
  TD50: 3220 mg/kg/day and 975 mg/kg/day
rat, strain Fischer 344, males, in feed, site: kidney, lesion: tubule adenoma, dosed 104 weeks, study length 104 weeks
  TD50: 4050 mg/kg/day and 1040 mg/kg/day
rat, strain Fischer 344, males, in feed, site: liver, lesion: hepatocellular adenoma + hepatoblastoma + hepatocellular carcinoma, dosed 104 weeks, study length 104 weeks
  TD50: 118000 mg/kg/day
rat, strain Fischer 344, males, in feed, site: thyroid gland, lesion: follicular-cell adenoma, bilateral + follicular-cell adenoma, dosed 104 weeks, study length 104 weeks
  TD50: 6990 mg/kg/day

## CC(=O)N[C@@H](CC(C)C)C(=O)N[C@@H](CC(C)C)C(=O)NC(C=O)CCCN=C(N)N (stereo partly specified)
mouse, strain A/JJms, females, in feed, site: liver, lesion: liver-cell tumor, type B, dosed 68 weeks, study length 68 weeks
  TD50: 933 mg/kg/day (inactive)
mouse, strain A/JJms, females, in feed, site: lung, lesion: several types, types named in the paper, dosed 68 weeks, study length 68 weeks
  TD50: 229 mg/kg/day (inactive)
mouse, strain A/JJms, males, in feed, site: liver, lesion: several types, types named in the paper, dosed 68 weeks, study length 68 weeks
  TD50: 55.8 mg/kg/day
mouse, strain A/JJms, males, in feed, site: lung, lesion: several types, types named in the paper, dosed 68 weeks, study length 68 weeks
  TD50: 422 mg/kg/day (inactive)

## CC1=CC(=C(c2ccc(N)cc2)c2ccc(N)cc2)C=CC1=N
hamster, strain Syrian Golden, females, by gavage, site: any site (literature study), lesion: several types, types named in the paper, dosed 68 weeks, study length 68 weeks
  carcinogen call: negative (inactive)
hamster, strain Syrian Golden, males, by gavage, site: any site (literature study), lesion: several types, types named in the paper, dosed 84 weeks, study length 84 weeks
  carcinogen call: negative (inactive)
hamster, strain Syrian Golden, males, by gavage, site: lung, lesion: bronchiolar adenoma, dosed 84 weeks, study length 84 weeks
  TD50: 2020 mg/kg/day (inactive)
rat, strain Sprague-Dawley, females, by gavage, site: any site (literature study), lesion: several types, types named in the paper, dosed 107 weeks, study length 107 weeks
  carcinogen call: negative (inactive)
rat, strain Sprague-Dawley, males, by gavage, site: any site (literature study), lesion: several types, types named in the paper, dosed 111 weeks, study length 111 weeks
  carcinogen call: negative (inactive)

## CC(=O)[O-].CC(=O)[O-].[OH-].[OH-].[OH-].[OH-].[Pb+2].[Pb+2].[Pb+2]
mouse, strain Swiss, females, in feed, site: kidney, lesion: adenoma, dosed 104 weeks, study length 104 weeks
  carcinogen call: positive
mouse, strain Swiss, females, in feed, site: kidney, lesion: carcinoma, dosed 104 weeks, study length 104 weeks
  TD50: 14800 mg/kg/day
mouse, strain Swiss, males, in feed, site: kidney, lesion: adenoma, dosed 86 weeks, study length 104 weeks
  TD50: 986 mg/kg/day
mouse, strain Swiss, males, in feed, site: kidney, lesion: carcinoma, dosed 86 weeks, study length 104 weeks
  TD50: 472 mg/kg/day
rat, strain Sprague-Dawley, males, in feed, site: kidney, lesion: several types, types named in the paper, dosed 79 weeks, study length 79 weeks
  TD50: 266 mg/kg/day
rat, strain Sprague-Dawley, males, in feed, site: liver, lesion: one or several types, types not named, dosed 79 weeks, study length 79 weeks
  carcinogen call: negative (inactive)
rat, strain Wistar, females, in feed, site: kidney, lesion: several types, types named in the paper, dosed 104 weeks, study length 104 weeks
  TD50: 339 mg/kg/day
rat, strain Wistar, females, in feed, site: kidney, lesion: several types, types named in the paper, dosed 126 weeks, study length 126 weeks
  TD50: 107 mg/kg/day
rat, strain Wistar, males, in feed, site: kidney, lesion: several types, types named in the paper, dosed 104 weeks, study length 104 weeks
  TD50: 443 mg/kg/day
rat, strain Wistar, males, in feed, site: kidney, lesion: several types, types named in the paper, dosed 126 weeks, study length 126 weeks
  TD50: 107 mg/kg/day
